From US10988465B2, “CXCR4 inhibitors and uses thereof” (X4 Pharmaceuticals, Inc., priority 2016, dated 2021)

Assays:
[1] = biological target: T1, CXCR-4 transfected U87 cell line (U87.CXCR4) (Homo sapiens, UniProt P61073); test: Intracellular CXCL-12-induced calcium mobilization assay (FLIPR); format: cell-based; conditions: U87.CXCR4 cells; CXCL-12 25-50 ng/mL; compound added 15 min before; read-out: IC50 CXCL-12 Ca^2+ flux U87.CXCR4+
T1 construct: expressed in transfected cells; host or cells: U87 (U87.CXCR4)
T1 sequence (P61073 whole entry): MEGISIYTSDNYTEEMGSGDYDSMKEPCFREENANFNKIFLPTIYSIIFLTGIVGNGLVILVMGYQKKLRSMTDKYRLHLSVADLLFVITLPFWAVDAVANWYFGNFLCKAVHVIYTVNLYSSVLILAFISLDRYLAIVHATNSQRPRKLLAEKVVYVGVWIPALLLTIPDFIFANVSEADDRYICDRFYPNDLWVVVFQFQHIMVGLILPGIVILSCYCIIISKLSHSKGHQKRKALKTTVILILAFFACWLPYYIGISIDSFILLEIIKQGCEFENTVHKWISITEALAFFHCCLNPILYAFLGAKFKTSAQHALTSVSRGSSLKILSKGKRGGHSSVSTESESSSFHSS
Protocol: Example 36: REGA Screening Assay
Intracellular CXCL-12-Induced Calcium Mobilization Assay
Intracellular calcium mobilization induced by chemokines or chemokine-derived peptides were evaluated using a calcium responsive fluorescent probe and a FLIPR system. The CXCR-4 transfected U87 cell line (U87.CXCR4) cells were seeded in gelatine-coated black-wall 96-well plates at 20,000 cells per well and incubated for 12 hours. Cells were then loaded with the fluorescent calcium probe Fluo-2 acetoxymethyl at 4 μM final concentration in assay buffer (Hanks' balanced salt solution with 20 mM HEPES buffer and 0.2% bovine serum albumin, pH 7.4) for 45 min at 37° C. The intracellular calcium mobilization induced by the CXCL-12 (25-50 ng/mL) was then measured at 37° C. by monitoring the fluorescence as a function of time in all the wells simultaneously using a fluorometric imaging plate reader (FLIPR Tetra, Molecular Devices).

[2] = biological target: T2, Jurkat cells expressing CXCR4 (Homo sapiens, UniProt P61073); test: Chemokine (CXCL12-AF647) binding inhibition assay; conditions: CXCL12-AF647 25 ng/mL, read-out: IC50 CXCL-12 binding Jurkat
T2 construct: endogenous in cells; host or cells: Jurkat
T2 sequence (P61073 whole entry): as above
Protocol: Chemokine (CXCL12-AF647) Binding Inhibition Assay
Jurkat cells expressing CXCR4 were washed once with assay buffer (Hanks' balanced salt solution with 20 mM HEPES buffer and 0.2% bovine serum albumin, pH 7.4) and then incubated for 15 min at room temperature with the test compounds diluted in assay buffer at dose-dependent concentrations. Subsequently, CXCL12-AF647 (25 ng/mL) was added to the compound-incubated cells. The cells were incubated for 30 min at room temperature. Thereafter, the cells were washed twice in assay buffer, fixed in 1% paraformaldehyde in PBS, and analyzed on the FL4 channel of a FACSCalibur flow cytometer equipped with a 635-nm red diode laser (Becton Dickinson, San Jose, Calif., USA).
The percentages of inhibition of CXCL12-AF647 binding were calculated according to the formula: [1−((MFI−MFINC)/(MFIPC−MFINC))]×100 where MFI is the mean fluorescence intensity of the cells incubated with CXCL12-AF647 in the presence of the inhibitor, MFINC is the mean fluorescence intensity measured in the negative control (i.e., autofluorescence of unlabeled cells), and MFIPC is the mean fluorescence intensity of the positive control (i.e., cells exposed to CXCL12-AF647 alone).

in vitro = conditions: human, Caco-2, pH 7.4
Protocol: Example 37: Caco-2 Permeability Assay
The goal of this assay was to evaluate the intestinal absorption potential of drug candidates using Caco-2 cell lines.
HBSS buffer with 0.3% DMSO and 5 μM LY: add 150 μL DMSO and 50 μL LY (5 mM) into 50 ml HBSS buffer (pH 7.4).
HBSS buffer with 0.1% DMSO and 5 μM LY: add 50 μL DMSO and 50 μL LY (5 mM) into 50 mL HBSS buffer (pH 7.4).
HBSS buffer with 0.3% DMSO: add 150 μL DMSO into 50 ml HBSS buffer (pH 7.4).
HBSS buffer with 0.1% DMSO: add 50 μL DMSO into 50 ml HBSS buffer (pH 7.4).
Prepare HBSS buffer with 0.4% DMSO: add 200 μL DMSO into 50 ml HBSS buffer (pH 7.4).
Prepare HBSS buffer with 0.4% DMSO and 5 μM LY: add 200 μL DMSO and 50 μL LY (5 mM) into 50 ml HBSS buffer (pH 7.4).
4. Measure TEER Take cell culture plate out of incubator, wash the cell monolayers with HBSS buffer, and then measure TEER values at Rm temperature. 5. Centrifuge Centrifuge the compound solution (from step 3) at 4000 rpm for 5 min before loading to donor chambers. 6. Dosing Add solution based on the volumes listed in the following table (make sure to take extra 100 μL of donor sample for T0 as Backup).
7. Apical LYT0 samples To determine LY concentration in the apical chember, take 100 μL sample from apical chambers into an opaque plate for LYT0. 8. Prewarm Prewarm apical and basolateral plates at 37° C. for about 5 min, then begin transport by placing the apical plate onto basolateral plate. 9. Incubation Keep the plates in incubator at 37° C. for 90 min. 10. Standard Curve preparation
11. Transport termination Separate the apical plate from the basolateral plate after 90-min incubation.
Receiver sample: 60 μL of receiver sample+60 μL ACN with IS (Osalmid or Imipramine)
Study details: Test concentration 10 μM
Test systems: Caco-2/HBSS solution
Incubation conditions: 0, 90 min at 37° C.
Sample size: Duplicates (n=2)
Bioanalytical method: LC-MS/MS
For Millicell-24 Cell Culture Plates: surface area of the membrane=0.7 cm^2, VA=0.8 mL (A-to-B) or 0.4 mL (B-to-A)
1. Papp values were calculated based on calculated concentrations.
The compound numbers correspond to the compound numbers in Table 1.

IC50 [1]	IC50 [2]	Papp A→B at 90 min, 10 μM (in vitro)	Papp B→A at 90 min, 10 μM (in vitro)	efflux ratio at 90 min, 10 μM (in vitro)	SMILES
0.01 to 100 nM	0.01 to 100 nM	0.1 to 10 ×10⁻⁶ cm/s	10 to 30 ×10⁻⁶ cm/s	0.1 to 10	Cc1cccnc1[C@@H]1CCC[C@H](c2nc3cccc(C4CCN(C)CC4)c3[nH]2)N1 [I-151]
≥ 1000 nM	≥ 1000 nM	10 to 30 ×10⁻⁶ cm/s	10 to 30 ×10⁻⁶ cm/s	0.1 to 10	Cc1cccnc1[C@@H]1CCC[C@H](c2nccn2CCc2ccccn2)N1 [I-177]
≥ 1000 nM	0.01 to 100 nM	10 to 30 ×10⁻⁶ cm/s	10 to 30 ×10⁻⁶ cm/s	0.1 to 10	CN1CCN(c2cccc3nc([C@H]4CCC[C@@H](c5ncccc5C(F)(F)F)N4C)[nH]c23)CC1 (relative stereo) [I-58]
0.01 to 100 nM	0.01 to 100 nM	10 to 30 ×10⁻⁶ cm/s	10 to 30 ×10⁻⁶ cm/s	0.1 to 10	CN1CCC(n2c([C@H]3CCC[C@@H](c4ncccc4Cl)N3C)nc3ccccc32)CC1 [I-134]
≥ 1000 nM	≥ 1000 nM	10 to 30 ×10⁻⁶ cm/s	10 to 30 ×10⁻⁶ cm/s	0.1 to 10	Cc1cc(F)cnc1[C@@H]1CCC[C@H](c2nccn2C2CCN(C)CC2)N1 [I-173]
100 to 1000 nM	0.01 to 100 nM	10 to 30 ×10⁻⁶ cm/s	10 to 30 ×10⁻⁶ cm/s	0.1 to 10	Cc1cccnc1[C@@H]1CCC[C@H](c2nc3cccc(N4CCNC5(CC5)C4)c3[nH]2)N1C [I-129]
0.01 to 100 nM	0.01 to 100 nM	0.1 to 10 ×10⁻⁶ cm/s	10 to 30 ×10⁻⁶ cm/s	> 30	Cc1cccnc1[C@@H]1C[C@@H](O)C[C@H](c2nc3cccc(N4CCN(C)CC4)c3[nH]2)N1C [I-101]
0.01 to 100 nM	0.01 to 100 nM	0.1 to 10 ×10⁻⁶ cm/s	10 to 30 ×10⁻⁶ cm/s	> 30	Cc1cccnc1[C@@H]1C[C@H](O)C[C@H](c2nc3cccc(N4CCN(C)CC4)c3[nH]2)N1C [I-100]
≥ 1000 nM	≥ 1000 nM	0.1 to 10 ×10⁻⁶ cm/s	10 to 30 ×10⁻⁶ cm/s	0.1 to 10	CN1CCC(n2ccnc2[C@H]2CCC[C@@H](c3ccccn3)N2)CC1 [I-180]
≥ 1000 nM	≥ 1000 nM	10 to 30 ×10⁻⁶ cm/s	10 to 30 ×10⁻⁶ cm/s	0.1 to 10	COCCCn1c([C@H]2CCC[C@@H](c3ncccc3C)N2)nc2ccccc21 [I-158]
0.01 to 100 nM	0.01 to 100 nM	0.1 to 10 ×10⁻⁶ cm/s	10 to 30 ×10⁻⁶ cm/s	10 to 30	Cc1cccnc1[C@@H]1CCC[C@H](c2nc3cccc(N4CCNCC4)c3[nH]2)N1C [I-136]
0.01 to 100 nM	0.01 to 100 nM	0.1 to 10 ×10⁻⁶ cm/s	10 to 30 ×10⁻⁶ cm/s	10 to 30	Cc1cccnc1[C@@H]1CCC[C@H](c2nc3cccc(N4CCNC(C)(C)C4)c3[nH]2)N1C [I-52]
0.01 to 100 nM	0.01 to 100 nM	10 to 30 ×10⁻⁶ cm/s	10 to 30 ×10⁻⁶ cm/s	0.1 to 10	CCN1CCN(c2cccc3nc([C@H]4CCC[C@@H](c5ncccc5Cl)N4)[nH]c23)CC1 [I-149]
0.01 to 100 nM	0.01 to 100 nM	10 to 30 ×10⁻⁶ cm/s	10 to 30 ×10⁻⁶ cm/s	0.1 to 10	Clc1cccnc1[C@@H]1CCC[C@H](c2nc3cccc(N4CCN(C5CC5)CC4)c3[nH]2)N1 [I-143]
≥ 1000 nM	100 to 1000 nM	10 to 30 ×10⁻⁶ cm/s	10 to 30 ×10⁻⁶ cm/s	0.1 to 10	CN1CCN(c2cccc3nc([C@H]4CCC[C@@H](c5ncccc5C#N)N4C)[nH]c23)CC1 [I-10, 2-((2S,6R)-1-methyl-6-(7-(4-methylpiperazin-1-yl)-1H-benzo[d]imidazol-2-yl)piperidin-2-yl)nicotinonitrile]
0.01 to 100 nM	0.01 to 100 nM	0.1 to 10 ×10⁻⁶ cm/s	10 to 30 ×10⁻⁶ cm/s	> 30	CNCCCn1c([C@H]2CCC[C@@H](c3ncccc3C)N2C)nc2ccccc21 [I-16, N-methyl-3-(2-((2R,6S)-1-methyl-6-(3-methylpyridin-2-yl)piperidin-2-yl)-1H-benzo[d]imidazol-1-yl)propan-1-amine]
≥ 1000 nM	0.01 to 100 nM	0.1 to 10 ×10⁻⁶ cm/s	10 to 30 ×10⁻⁶ cm/s	0.1 to 10	Cc1cccnc1[C@@H]1CCC[C@H](c2nccn2C2CCN(C)CC2)N1 [I-171]
≥ 1000 nM	0.01 to 100 nM	0.1 to 10 ×10⁻⁶ cm/s	0.1 to 10 ×10⁻⁶ cm/s	0.1 to 10	Cc1cccnc1[C@@H]1CCC[C@H](c2nc3ccccc3n2CCCCN2CCC(F)(F)CC2)N1C [I-41]
0.01 to 100 nM	0.01 to 100 nM	10 to 30 ×10⁻⁶ cm/s	10 to 30 ×10⁻⁶ cm/s	0.1 to 10	Cc1cccnc1[C@@H]1CCC[C@H](c2nc3ccccc3[nH]2)N1CCc1ccccn1 [I-27, 2-((2R,6S)-6-(3-methylpyridin-2-yl)-1-(2-(pyridin-2-yl)ethyl)piperidin-2-yl)-1H-benzo[d]imidazole]
100 to 1000 nM	0.01 to 100 nM	0.1 to 10 ×10⁻⁶ cm/s	10 to 30 ×10⁻⁶ cm/s	0.1 to 10	Cc1cccnc1[C@@H]1CCC[C@H](c2nc3ccccc3n2CCCCN(C)C)N1C [I-38]
0.01 to 100 nM	0.01 to 100 nM	10 to 30 ×10⁻⁶ cm/s	10 to 30 ×10⁻⁶ cm/s	0.1 to 10	CN1CCC(n2c([C@H]3CCC[C@@H](c4ncccc4Cl)N3)nc3ccccc32)CC1 [I-135]
100 to 1000 nM	0.01 to 100 nM	0.1 to 10 ×10⁻⁶ cm/s	10 to 30 ×10⁻⁶ cm/s	0.1 to 10	Cc1cccnc1[C@@H]1CCC[C@H](c2nc3c(Br)ccc(Br)c3n2CC2CCN(C)CC2)N1C [I-47]
0.01 to 100 nM	0.01 to 100 nM	0.1 to 10 ×10⁻⁶ cm/s	10 to 30 ×10⁻⁶ cm/s	0.1 to 10	Cc1c(Cl)ccnc1[C@@H]1CCC[C@H](c2nc3cccc(N4CCN(C)CC4)c3[nH]2)N1 [I-140]
0.01 to 100 nM	0.01 to 100 nM	0.1 to 10 ×10⁻⁶ cm/s	10 to 30 ×10⁻⁶ cm/s	0.1 to 10	COc1cccnc1[C@@H]1CCC[C@H](c2nc3cccc(N4CCN(C)CC4)c3[nH]2)N1C [I-62]
100 to 1000 nM	0.01 to 100 nM	10 to 30 ×10⁻⁶ cm/s	10 to 30 ×10⁻⁶ cm/s	0.1 to 10	Cc1cccnc1[C@@H]1CCC[C@H](c2nccn2C2CCN(C3CC3)CC2)N1C [I-174]
